Experimental data reported in publication PMC7321169, “N-Alkylaminoferrocene-Based Prodrugs Targeting Mitochondria of Cancer Cells” (Molecules, 2020).

Assays:
[1] = Generation of ROS in cell free settings (2′,7′-dichlorofluorescin oxidation in the presence of H2O2); settings: H2O2 10 mM; for Initial rate (dF/dt)0 of DCFH oxidation in the presence of H2O2: compound 49.5 μM, DCFH 10 μM, GSH 5 mM, EDTA 10 mM, MOPS buffer, 37 °C; for Activity in DCFH oxidation assay relative to prodrug 5: more active than 5, 49.5 μM
Method: 2′,7′-Dichlorofluorescin diacetate (DCFH-DA, 4.9 mg) was dissolved in 100 µL DMF and mixed with 0.1 M NaOH (900 µL). This mixture was incubated on a shaker for 30 min at 25 °C in the dark to obtain 10 mM 2′,7′-dichlorofluorescin (DCFH) stock solution. Next, 3-(N-morpholino)propanesulfonic acid buffer (MOPS buffer 100 mM, pH: 7.4) containing N,N,N’,N’-ethylenediaminetetraacetic acid (EDTA, 10 mM), glutathione (GSH, 5 mM) and H2O2 (10 mM) was prepared. Finally, DCFH was diluted in this buffer to 10 µM as the final concentration. Monitoring of the fluorescence was started (λex: 501 nm, λem: 525 nm). […] DMF and FeSO4 in DMF were used as controls. The measurement was conducted for 300 min (Table S2, Figure 1A).

[2] = system: BL-2 cells; test: Viability of suspension BL-2 cells (MTT); assay type: cell-based
Method: The suspension of BL-2 cells in the RPMI 1640 medium containing 5% FBS (for 24- and 48 h assays) or 10% FBS (for 96 h assays) 1% L-glutamine, and 1% penicillin/streptomycin was spread in the wells of a 96-well microtiter plate. Every plate contained 50,000 cells (with the exception of the 96h-experiment, for which 25,000 cells were used) per well per 100 μL. Stock solutions of prodrugs of different concentrations (1 μL, solvent DMSO) were added to the wells and incubated for 24–96 h. Four experiments were conducted for each concentration of the prodrug. Finally, 3-(4,5-dimethylthiazol-2-yl)-2,5-diphenyltetrazolium bromide (MTT; 20 μL of the solution prepared by dissolving MTT (5 mg) in PBS buffer (1 mL)) was added to each well, incubated for 3 h, treated with sodium dodecyl sulfate (SDS) solution (90 μL, 10% solution in 0.01 M aqueous HCl), and incubated overnight. Then the intensity of absorbance at 590 nm was measured (MTT is converted to blue dye (λmax = 590 nm) in live cells). The absorbance at 690 nm was taken as a baseline value.

[3] = system: A2780 cells; test: Viability of adherent A2780 cells (MTT); assay type: cell-based, human
Method: (§1) Adherent A2780, DU-145 and NHDF cells were grown as mentioned before. Then, the cells were resuspended in the RPMI 1640 (DMEM for HDFa cell line) medium containing 5% FBS (for 24- and 48 h assays) or 10% FBS (for 96 h assays) 1% L-glutamine, and 1% penicillin/streptomycin. This suspension was spread in the wells of a 96-well microtiter plate. Every well in the plates contained 25,000 cells (exceptions: 12,500 cells for the 96h-assay and 10,000 cells for experiments with HDFa cell line) per well per 100 μL and was left at 37 °C in the chamber filled with CO2 (5%) overnight. Stock solutions of prodrugs of different concentrations (1 μL, solvent DMSO) were added to the wells and incubated for 24–96 h. Four experiments were conducted for each concentration of the prodrug. Finally, 3-(4,5-dimethylthiazol-2-yl)-2,5-diphenyltetrazolium bromide (MTT; 20 μL of the solution prepared by dissolving MTT (5 mg) in PBS buffer (1 mL)) was added to each well, incubated for 3 h, treated with sodium dodecyl sulfate (SDS) solution (90 μL, 10% solution in 0.01 M aqueous HCl), and incubated overnight. Then the intensity of absorbance at 590 nm was measured (MTT is converted to blue dye (λmax = 590 nm) in live cells). The absorbance at 690 nm was taken as a baseline value.

[4] = system: DU-145 cells; test: Viability of adherent DU-145 cells (MTT); assay type: cell-based, human
Method: as §1

[5] = system: Jurkat cells; test: Viability and cell death of Jurkat cells (Annexin A5-FITC/PI flow cytometry); assay type: cell-based, human; settings: for IC50: 48 h incubation; for Mechanism of cell death of Jurkat cells: 48 h, Ax/PI staining
Method: Jurkat cells were counted in MUSE Cell Analyzer using MUSE® Count &Viability Assay Kit (Merck-Millipore, Billerica, MA, USA) and adjusted to a density of 1.0 × 10^5/mL in RPMI 1640 medium (with 10% FCS and 1% glutamine). A total of 9000 cells per well per 90 μL were seeded into 96 well culture plates. The 50 mM prodrug stock solutions were diluted to 300, 100, 30, and 10 μM in cell culture medium and 10 μL of the dilutions was pipetted to the cells, receiving final test concentrations of 30, 10, 3, and 1 μM. Every concentration was tested in triplicates. Cells with corresponding amounts of DMSO served as negative controls. […] was incubated with 200 μL of freshly prepared staining solution, consisting of 1 μl Annexin A5-Fitc, 0.4 μL 1,1′,3,3,3′,3′-hexamethylindodicarbocyanine iodide (DiIC1(5)) (both from Thermo Fisher Scientific, Waltham, MA, USA), 66.6 ng propidiumiodide (PI) and 33 μM monobromobimane (MBB, both from Sigma-Aldrich, Taufkirchen, Germany) per 1 mL Ringer’s solution (Fresenius Kabi AG, Bad Homburg, Germany). Cells were incubated for 20 min at 4 °C and then analyzed in Gallios cytofluorometer™ (Beckman Coulter, Fullerton, CA, USA). Fitc and propidium iodide were excited at 488 nm; Fitc fluorescence was recorded on the FL1 sensor (525/38 nm band pass, BP) and propidium iodide fluorescence was detected on FL3 sensor (620/30 nm BP), DiIC1(5) fluorescence was excited at 638 nm and detected on FL6 sensor at 675/20 nm. Monobromobimane fluorescence was excited at 405 nm and detected on FL9 sensor at 430/40 nm. To eliminate any fluorescence bleed-through, electronic compensation was used. Data were analyzed employing Kaluza™ software Version 1.2 (Beckman Coulter, Fullerton, CA, USA) and processed in Microsoft Excel. Cells negative for Annexin A5- Fitc and propidium iodide were considered viable. IC50 values were determined by fitting the % values of Ax-PI- cells versus drug concentration with a sigmoidal curve using GraphPad Prism software. Reduced glutathione (an intracellular thiol) can be detected by monobromobimane, a dye that becomes fluorescent after non-enzymatic binding to thiols. For analysis of the amount of mitochondrial membrane potential or reduced glutathione, the mean fluorescence index (MFI) was determined from viable cells by gating on Ax-PI-events.

[6] = system: HDFa cells; test: Viability of adherent HDFa cells (MTT); assay type: cell-based, human; settings: 48 h incubation, normal cells
Method: as §1

[7] = system: Jurkat cells; test: Mitochondrial membrane potential of Jurkat cells (DiIC1(5)); assay type: cell-based, human; settings: 48 h; 5 at nontoxic concentrations ≤ 10 μM; 12 at all tested concentrations
Method: Jurkat cells were counted in MUSE Cell Analyzer using MUSE® Count &Viability Assay Kit (Merck-Millipore, Billerica, MA, USA) and adjusted to a density of 1.0 × 10^5/mL in RPMI 1640 medium (with 10% FCS and 1% glutamine). A total of 9000 cells per well per 90 μL were seeded into 96 well culture plates. The 50 mM prodrug stock solutions were diluted to 300, 100, 30, and 10 μM in cell culture medium and 10 μL of the dilutions was pipetted to the cells, receiving final test concentrations of 30, 10, 3, and 1 μM. Every concentration was tested in triplicates. Cells with corresponding amounts of DMSO served as negative controls. […] Cells were incubated for 20 min at 4 °C and then analyzed in Gallios cytofluorometer™ (Beckman Coulter, Fullerton, CA, USA). Fitc and propidium iodide were excited at 488 nm; Fitc fluorescence was recorded on the FL1 sensor (525/38 nm band pass, BP) and propidium iodide fluorescence was detected on FL3 sensor (620/30 nm BP), DiIC1(5) fluorescence was excited at 638 nm and detected on FL6 sensor at 675/20 nm. Monobromobimane fluorescence was excited at 405 nm and detected on FL9 sensor at 430/40 nm. To eliminate any fluorescence bleed-through, electronic compensation was used. Data were analyzed employing Kaluza™ software Version 1.2 (Beckman Coulter, Fullerton, CA, USA) and processed in Microsoft Excel. […]

[8] = Solubility of prodrugs in aqueous buffers (absorbance at 790 nm); assay type: physicochemical
Method: Prodrugs 5, 7 and 9 (known control) were dissolved in DMSO at concentrations of 15, 10, 5, 2, 1.5, 1, and 0.2 mM. These solutions (10 μL) were transferred to quartz cuvettes containing 990 μL of either Dulbecco's phosphate-buffered saline (DPBS) or Roswell Park Memorial Institute (RPMI) medium containing 20% of fetal bovine serum (FBS) to obtain solutions (or suspensions) with final concentrations of prodrugs-150, 100, 50, 20, 15, 10, and 2 μM. The absorbance at 790 nm of the resulting solutions/suspensions was measured and plotted as a function of the concentration of prodrugs.

O=S(=O)([O-])[O-].[Fe+2] [FeSO4]
Initial rate (dF/dt)0 of DCFH oxidation in the presence of H2O2 [1]: 22.3 a.u. × min^−1
Activity in DCFH oxidation assay relative to prodrug 5 [1]: 2.9 fold

[Fe+2].c1cc[cH-]c1.c1cc[cH-]c1 [control 11, ferrocene]
IC50 ([2]; 24 h incubation): > 50 µM
IC50 ([2]; 48 h incubation): > 50 µM
IC50 ([2]; 96 h incubation): > 50 µM
IC50 ([3]; 24 h incubation): > 50 µM
IC50 ([3]; 48 h incubation): > 50 µM
IC50 ([3]; 96 h incubation): > 50 µM
IC50 ([4]; 24 h incubation): > 50 µM
IC50 ([4]; 48 h incubation): > 50 µM
IC50 ([4]; 96 h incubation): > 50 µM
IC50 [5]: > 50 µM

CCCC[P+](c1ccccc1)(c1ccccc1)c1ccccc1 [control 12]
IC50 ([2]; BL2, 24 h incubation): 2 ± 1 µM
IC50 ([2]; BL2, 48 h incubation): 0.5 ± 0.2 µM
IC50 ([2]; BL2, 96 h incubation): 0.3 ± 0.1 µM
Mechanism of cell death of Jurkat cells [5]: mostly via necrosis
IC50 ([6]; Homo sapiens, HDFa): < 1 µM
Effect on mitochondrial potential of Jurkat cells [7]: reduces the mitochondrial potential

C#Cc1ccc(-c2c3ccc(=[N+](C)C)cc-3oc3cc(N(C)C)ccc23)c(C(=O)[O-])c1 [control 13]
IC50 ([2]; BL2, 48 h incubation): 35 ± 6 µM
IC50 ([3]; Homo sapiens, A2780, 48 h incubation): > 50 µM

CC1(C)OB(c2ccc(COC(=O)N(Cc3cccc(CN4CCCCC4)c3)[c-]3cccc3)cc2)OC1(C)C.[Fe+2].c1cc[cH-]c1 [prodrug 8]
Initial rate (dF/dt)0 of DCFH oxidation in the presence of H2O2 [1]: 17.1 a.u. × min^−1
Activity in DCFH oxidation assay relative to prodrug 5 [1]: 2.2 fold

COC(=O)CCCCCn1cc(CN(C(=O)OCc2ccc(B3OC(C)(C)C(C)(C)O3)cc2)[c-]2cccc2)nn1.[Fe+2].c1cc[cH-]c1 [prodrug 9]
Solubility in DPBS ([8]; DPBS containing DMSO (1%, v/v)): 90 ± 10 µM
Solubility in FBS ([8]; RPMI medium containing 20% FBS and DMSO (1%, v/v)): 114 ± 11 µM
IC50 ([2]; 24 h incubation): 37 ± 2 µM
IC50 ([2]; 48 h incubation): 35 ± 2 µM
IC50 ([2]; 96 h incubation): 33 ± 2 µM
IC50 ([3]; 24 h incubation): 42 ± 3 µM
IC50 ([3]; 48 h incubation): 32 ± 3 µM
IC50 ([3]; 96 h incubation): 30 ± 5 µM
IC50 ([4]; 24 h incubation): > 50 µM
IC50 ([4]; 48 h incubation): 47 ± 2 µM
IC50 ([4]; 96 h incubation): 35 ± 3 µM
Mechanism of cell death of Jurkat cells [5]: mostly via necrosis
IC50 [5]: 30 ± 4 µM
IC50 [6]: > 50 µM
